According to a polymer gas permeability compilation:

| SMILES | CH4 permeability [Barrer] | CO2 permeability [Barrer] | H2 permeability [Barrer] | N2 permeability [Barrer] | O2 permeability [Barrer] |
| --- | --- | --- | --- | --- | --- |
| */C(C)=C(/*)[Si](C)(C)c1ccccc1 (repeat unit) | 1.7 | 37.6 | 14 | 1.2 | 4.4 |
| *C(=C(*)c1ccc2c(ccc3ccccc32)c1)c1ccc([Si](C)(C)C)cc1 (repeat unit) | 500 | 2100 | 900 | 190 | 460 |
| *C(=C(*)c1ccc2c(ccc3ccccc32)c1)c1ccccc1 (repeat unit) | 1450 | 5300 | 2500 | 650 | 1300 |
| *C(=C(*)c1cccc(O)c1)c1ccc(C(C)(C)C)cc1 (repeat unit) | 490 | 3000 | 1700 | 210 | 580 |
| *c1ccc(Sc2ccc(Sc3ccc(Sc4ccc(N5C(=O)c6ccc(C(c7ccc8c(c7)C(=O)N(*)C8=O)(C(F)(F)F)C(F)(F)F)cc6C5=O)cc4)cc3)cc2)cc1 (repeat unit) | 0.22 | 8.37 |  | 0.37 | 1.72 |
| *c1ccc2c(-c3c(O)ccc4cc(N5C(=O)c6ccc(C(c7ccc8c(c7)C(=O)N(*)C8=O)(C(F)(F)F)C(F)(F)F)cc6C5=O)ccc34)c(O)ccc2c1 (repeat unit) | 0.09 | 4.32 | 5.95 | 0.14 | 0.98 |
| *c1ccc2c(-c3c(O)ccc4cc(N5C(=O)c6ccc(Oc7ccc8c(c7)C(=O)N(*)C8=O)cc6C5=O)ccc34)c(O)ccc2c1 (repeat unit) | 0.03 | 1.87 | 2.72 | 0.05 | 0.35 |
| *c1ccc2c(-c3c(OC(C)=O)ccc4cc(N5C(=O)c6ccc(C(=O)c7ccc8c(c7)C(=O)N(*)C8=O)cc6C5=O)ccc34)c(OC(C)=O)ccc2c1 (repeat unit) | 0.08 | 3.55 | 4.67 | 0.15 | 0.92 |
| *c1ccc2c(-c3c(OC(C)=O)ccc4cc(N5C(=O)c6ccc(Oc7ccc8c(c7)C(=O)N(*)C8=O)cc6C5=O)ccc34)c(OC(C)=O)ccc2c1 (repeat unit) | 0.05 | 2.38 | 3.18 | 0.1 | 0.61 |
| *c1ccc2c(c1)-c1nc3ccc(-c4ccc5c(c4)nc4n5C(=O)c5cc(C(c6ccc(-c7nc8cc(C(c9ccc%10oc(-c%11ccc(C(*)(C(F)(F)F)C(F)(F)F)cc%11)nc%10c9)(C(F)(F)F)C(F)(F)F)ccc8o7)cc6)(C(F)(F)F)C(F)(F)F)ccc5-4)cc3n1C2=O (repeat unit) | 46 | 1800 | 1990 | 85 | 421 |
| *c1ccc2c(c1)C1c3ccccc3C2c2cc(N3C(=O)c4ccc(C(c5ccc6c(c5)C(=O)N(*)C6=O)(C(F)(F)F)C(F)(F)F)cc4C3=O)ccc21 (repeat unit) | 7.2 | 202 | 329 | 10.7 | 43.9 |
| *c1ccc2c(c1)Oc1ccc(C3(c4ccc5c(c4)Oc4ccc(*)cc4O5)c4ccccc4-c4ccccc43)cc1O2 (repeat unit) | 0.56 | 26.6 |  | 1.04 | 5.68 |
| *c1ccc2c(c1C)N1Cc3ccc(N4C(=O)c5ccc(C(c6ccc7c(c6)C(=O)N(*)C7=O)(C(F)(F)F)C(F)(F)F)cc5C4=O)c(C)c3N(C2)C1 (repeat unit) | 6.3 | 190 | 322 | 10 | 50 |
| *c1cccc(-c2cc(C)c(-c3cccc(*)c3C)cc2C)c1C (repeat unit) | 5.6 | 190 | 210 | 7.3 | 32 |
| *c1cccc(-c2nc3cc(-c4ccc5[nH]c(*)nc5c4)ccc3[nH]2)c1 (repeat unit) | 0.0018 | 0.16 | 0.615 | 0.0048 | 0.015 |
| *c1cccc(-c2nnc(*)n2-c2ccccc2)c1 (repeat unit) | 0.0491 | 2.7 |  | 0.09 | 0.52 |
| *c1cccc(C(c2cccc(-c3nnc(*)n3-c3ccc(O)cc3)c2)(C(F)(F)F)C(F)(F)F)c1 (repeat unit) | 1.41 | 66.3 |  | 2.37 | 12.5 |
| *c1cccc(C(c2cccc(-c3nnc(*)n3-c3ccccc3)c2)(C(F)(F)F)C(F)(F)F)c1 (repeat unit) | 4.66 | 132 |  | 5.93 | 26.1 |
| *c1cccc(C(c2cccc(N3C(=O)c4ccc(C(c5ccc6c(c5)C(=O)N(*)C6=O)(C(F)(F)F)C(F)(F)F)cc4C3=O)c2)(C(F)(F)F)C(F)(F)F)c1 (repeat unit) | 0.08 | 5.1 |  | 0.261 | 1.8 |
| *c1cccc(N2C(=O)c3ccc(C(=O)c4ccc5c(c4)C(=O)N(*)C5=O)cc3C2=O)c1 (repeat unit) | 0.0086 | 0.428 |  | 0.016 | 0.112 |
| *c1cccc(N2C(=O)c3ccc(C(c4ccc5c(c4)C(=O)N(*)C5=O)(C(F)(F)F)C(F)(F)F)cc3C2=O)c1 (repeat unit) | 0.163 | 9.7 | 35.5 | 0.419 | 2.79 |
| *c1cccc(N2C(=O)c3ccc(C(c4ccc5c(c4)C(=O)N(*)C5=O)(C(F)(F)F)C(F)(F)F)cc3C2=O)c1C (repeat unit) | 0.88 | 36.2 | 102 | 1.89 | 10.8 |
| *c1cccc(Oc2ccc(C(c3ccc(Oc4cccc(-n5c(=O)c6cc7c(=O)n(*)c(=O)c7cc6c5=O)c4)cc3)(C(F)(F)F)C(F)(F)F)cc2)c1 (repeat unit) | 0.17 | 6.12 | 19 | 0.292 | 1.4 |
| *c1cccc(Oc2ccc(C(c3ccc(Oc4cccc(N5C(=O)c6ccc(C(c7ccc8c(c7)C(=O)N(*)C8=O)(C(F)(F)F)C(F)(F)F)cc6C5=O)c4)cc3)(C(F)(F)F)C(F)(F)F)cc2)c1 (repeat unit) | 0.136 | 6 | 21 | 0.241 | 1.35 |
| *c1cccc2c(-n3c(=O)c4cc5oc6cc7c(cc6oc5cc4c3=O)C3(CC(C)(C)c4cc5oc6cc8c(=O)n(*)c(=O)c8cc6oc5cc43)CC7(C)C)cccc12 (repeat unit) | 27 | 510 | 350 | 19 | 77 |
| *c1ccccc1Oc1ccc2ccccc2c1-c1c(Oc2ccccc2N2C(=O)c3ccc(C(c4ccc5c(c4)C(=O)N(*)C5=O)(C(F)(F)F)C(F)(F)F)cc3C2=O)ccc2ccccc12 (repeat unit) | 0.07 | 4.88 | 6.86 | 0.13 | 0.99 |
